The subject of this assay is N. naja cobra venom phospholipase. The experiment in a line: In vitro inhibition of N. naja cobra venom phospholipase (FIG. 8). In kind it is biochemical.

On to `CCCCCCC(C/C=C\CCCCCCCC(=O)O)OC(=O)CCCCCCCCC(=O)O` (stereo not shown) [RISE-1, Ricinoleic Acid Sebacyl Ester], for which the “Inhibition of N. naja cobra venom phospholipase” value was “dose related, selective in vitro inhibition”.

These data come from US5659049A, “Antioxidant, antiphospholipase derivatives of ricinoleic acid” (Virginia Commonwealth University, priority 1995, dated 1997).
